“Also recorded” adds a separate entry of the source.
Key:
C3H10T1/2 (10T1/2) cells = assay: Wnt-mediated osteoblast differentiation / alkaline phosphatase secretion of C3H10T1/2 cells; assay type: cell-based, mouse; conditions: Wnt3A conditioned medium
Description: Upon osteoblast differentiation the 10T1/2 cells secrete alkaline phosphatase (AP), a phenomena which can be inhibited by DKK1.

tumor cell lines = assay: Survival and proliferation of cancer cell lines (Cell Titer Glo); assay type: cell-based; conditions: 100 μg/ml, three days, three serum concentrations
Method: This assay is carried out in three different serum concentrations (serum free, minimal growth, and complete growth). […] Cell line supernants are analyzed for DKK1 expression by ELISA.

[1] = tested on: N-linked deglycosylated rhDKK1; assay: ELISA binding to N-linked deglycosylated rhDKK1; set-up: species or system human; conditions: PNGase F treated rhDKK1, relative to WT
PC3M2AC6 xenografts = assay: Intratibial growth of PC3M2AC6 xenografts in mice; assay type: in vivo, mouse; conditions: i.v., 3 times a week for 2 weeks
Method: An osteolytic prostate tumor model is adapted from a method by [Kim 2003]. A variant of the osteolytic prostate tumor cell line (PC3M) that stably expresses luciferase (PC3M2AC6) is injected into the tibia of mice. The growth of the tumor is monitored by luciferase while changes in bone are monitored by micro-computerized tomography (micro-CT) and histology.
Control IgG is administered i.v., at 200 μg/mouse/day, q.d., 3 times a week for 2 weeks. Vehicle control (PBS) is administered i.v., q.d., 3 times a week for 2 weeks. Final efficacy data and body weight change are calculated after treatment.

DKK2 = target: T1, DKK2 (Homo sapiens, UniProt Q9UBU2); assay: Binding to human DKK2 (preliminary immunoprecipitation)
T1 sequence (Q9UBU2 34-259): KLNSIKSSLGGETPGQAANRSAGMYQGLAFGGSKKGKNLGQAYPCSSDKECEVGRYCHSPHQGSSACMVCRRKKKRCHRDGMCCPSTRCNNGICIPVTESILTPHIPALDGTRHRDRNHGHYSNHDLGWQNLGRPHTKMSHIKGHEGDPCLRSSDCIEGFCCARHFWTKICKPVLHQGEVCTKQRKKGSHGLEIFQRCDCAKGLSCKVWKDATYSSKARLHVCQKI
Description: Of note, neither DKK2 nor DKK4 conserve the Asparagine residue that is predicted to be targeted for glycosylation in the Cys-2 domain of DKK1.

[2] = target: T2, rhDKK1 (recombinant human DKK1) (Homo sapiens, UniProt O94907); assay: Biacore T100 SPR of captured antibody with rhDKK1; assay type: binding; conditions: WT DKK1
T2 construct: host or cells: HEK / HEK293
T2 sequence (O94907 32-266): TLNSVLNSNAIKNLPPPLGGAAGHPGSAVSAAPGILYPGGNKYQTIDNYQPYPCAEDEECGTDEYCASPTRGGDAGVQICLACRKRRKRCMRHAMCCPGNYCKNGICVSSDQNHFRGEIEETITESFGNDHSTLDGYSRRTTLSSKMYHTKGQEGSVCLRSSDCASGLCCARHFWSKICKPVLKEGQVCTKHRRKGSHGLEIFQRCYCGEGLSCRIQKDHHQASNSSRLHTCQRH
Method: FIG. 6. METHODS: The binding affinity and kinetics of lead candidates and rhDKK1 (recombinant human DKK1) (Batch BTP7757) are measured using surface plasmon resonance with a Biacore T100 (Biacore, Uppsala, Sweden) instrument containing a CM5 (S) sensor chip (Cat#BR-1006-68). Anti-Human IgG1 Fc (Jackson Immuno Research, Cat#109-006-098) is immobilized onto each flow cell, followed by capture of a lead candidate at an expected capture of about 100 RU. Finally, six concentrations of DKK1 (range 0.195-6.25 nM), with one repeat concentration, is run over the chip. Flow cells are activated for binding of DKK1 for 240 seconds, and disassociation is followed for 30 minutes. The normalized data (background subtracted) are fit to a 1:1 binding with mass transport model using Kinetics analysis in BIA evaluation 1.0 software. This experiment is carried out in triplicate, and data presented are the average of these three experiments with standard deviation.

[3] = target: T3, DKK1/LRP6 binding on cell surface (Homo sapiens, UniProt O94907); assay: DKK1-GFP binding to LRP6 on HEK293T cell surface, fluorescence microscopy; assay type: cell-based; conditions: HEK293T transfected with LRP6 and MESD
T3 construct: made in house; LRP6 and MESD transiently transfected into HEK293T
T3 sequence (O94907 32-266): T2 sequence (O94907 32-266)
Method: However, upon co-transfection of LRP6 with a surface trafficking chaperone protein, MESD, GFP-tagged DKK1 can be detected on the cell surface, illustrating the specific nature of the DKK1/LRP6 interaction.
The ability of MOR04910 to inhibit DKK1/LRP6 binding on cell surface is measured by fluorescence microscopy. HEK293T cells are either mock transfected and transiently transfected with plasmids encoding LRP6 and MESD. Cells are incubated with DKK1-GFP conditioned medium together with anti-lysozyme FAb or anti-DKK1 FAb MOR04910 for 1 hour at 37° C., and examined by fluorescence microscopy. GFP fluorescence reflects DKK1-GFP binding to overexpressed LRP6 on the plasma membrane.

[4] = tested on: tumor and sham implanted tibias; assay: Bone effects in tumor-induced osteolytic model (micro-CT, histology); assay type: in vivo, mouse
Method: An osteolytic prostate tumor model is adapted from a method by [Kim 2003]. A variant of the osteolytic prostate tumor cell line (PC3M) that stably expresses luciferase (PC3M2AC6) is injected into the tibia of mice. The growth of the tumor is monitored by luciferase while changes in bone are monitored by micro-computerized tomography (micro-CT) and histology. […] Cortical damage is scored from 0=no damage to 3=severe damage. FIG. 12B. Cortical damage in tumor-implanted tibias is manually scored by microCT analysis that are blinded with respect to the study groups. No cortical damage is observed in any of the sham implanted legs. Methods: Female nude mice at age of 12 weeks old are implanted intatibially with 2×10^5 PC-3M2AC6 cells in the left tibia and sham-injection in the right tibia. Treatments started on day 5 post implantation. […] Vehicle (PBS) control is also administered q.d., 3 times a week for 2 weeks. Animals are scanned at day 7, 14, and 18 post tumor implantation using the μ-CT VivaCT40 Scanner (SCANCO, Switzerland). Trabecular bone density (BV/TV) is analyzed as described in methods. An asterisks (*) indicates statistical significant difference from both vehicle and IgG controls (n=12) at the same time point at p<0.05. In FIG. 13, to determine the bone mass, the secondary spongiosa of the tibia is imaged with the Zeiss Imager Z.1 and Axiovision software based on Giemsa stain. The readout is based on the percent calcified bone in the entire field. Every column represents the mean and standard deviation of the stated number of animals. In the PBS, IgG, and anti-DKK1/4 antibody treated groups, only animals with tumor are analyzed. […] Statistic: Dunnett Multiple Comparisons Test One-Way ANOVA. Left legs or right legs compared to the respective leg in the PBS group p<0.05*, p<0.01**, p>0.05 n.s. […] Trabecular bone density (BV/TV) is analyzed as described in methods. * indicates statistical significant difference from all controls including, vehicle, IgG, drill only, and naïve animals at the same time point at p<0.05.

DKK1 (N-degly) = assay: Biacore T100 SPR with N-DEGLY DKK1; assay type: binding, human
[5] = tested on: subcutaneous PC3M2AC6 xenografts; assay: Subcutaneous PC3M2AC6 xenografts in mice; conditions: mouse, in vivo, sc
DKK3 = DKK3 (Homo sapiens, UniProt Q9UBP4); assay: Biacore T100 binding to human DKK3
Sequence of DKK3 (Q9UBP4 22-350): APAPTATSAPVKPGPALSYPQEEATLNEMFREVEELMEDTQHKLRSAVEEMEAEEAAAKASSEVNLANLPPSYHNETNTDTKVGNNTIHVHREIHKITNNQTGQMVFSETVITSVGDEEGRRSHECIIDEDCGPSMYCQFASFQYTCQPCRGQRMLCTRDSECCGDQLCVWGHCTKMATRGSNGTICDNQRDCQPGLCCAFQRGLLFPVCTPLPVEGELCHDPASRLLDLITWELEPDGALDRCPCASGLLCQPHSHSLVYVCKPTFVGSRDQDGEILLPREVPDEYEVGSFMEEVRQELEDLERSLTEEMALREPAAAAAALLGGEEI

What does the source list for “anti-DKK1/4 antibody: neutralizing anti-DKK1/4 antibody sharing the same variable regions as MOR04910 (4910 chains SEQ ID NO: 111/115, BHQ880)”?
reversal of DKK1 inhibited alkaline phosphatase secretion (C3H10T1/2 (10T1/2) cells): blocks DKK1 suppression of 10T1/2 differentiation; effect on survival and proliferation of cancer cell lines (tumor cell lines): No significant changes; Percent Binding, DKK1 (dyglycosylated) [1]: 12-18%; effect on intratibial tumor growth (PC3M2AC6 xenografts): trended toward inhibition of tumor growth; binding to DKK2 (DKK2): does not specifically bind DKK2; also recorded: no significant binding to DKK2; Ka [2]: 7.449e+06 M⁻¹ s⁻¹; Kd [2]: 2.319e-05 s⁻¹; inhibition of DKK1/LRP6 binding on cell surface [3]: blocks DKK1 interactions with LRP6 on cell surfaces; anti-osteolytic activity compared with Zometa ([4]; mouse, in vivo): equivalent anti-osteolytic activity as Zometa; tumor-induced cortical bone damage ([4]; mouse, in vivo): inhibits tumor-induced cortical bone damage; production of bone / bone volume ([4]; tumor and sham implanted tibias): increases the production of bone in both tumor and sham implanted tibias; Ka (DKK1 (N-degly)): 1.424e+06 M⁻¹ s⁻¹; Kd (DKK1 (N-degly)): 0.0003071 s⁻¹; effect on subcutaneous xenograft growth [5]: non-significant trend toward inhibition; binding to DKK3 (DKK3): does not bind DKK3

— US8673306B2, “Compositions and methods of use for antibodies of dickkopf-1” (Novartis AG, priority 2006, dated 2014)
